{"source": "patent EP0182135A2", "about": "“Novel bis-(substituted amino) anthraquinones” (AMERICAN CYANAMID COMPANY, priority 1984, dated 1986)", "key": {"[1]": {"test_system": "lymphocytic leukemia P388", "assay": "Lymphocytic Leukemia P388 Test", "assay_type": "in vivo, DBA/2 mice", "experimental": "Lymphocytic Leukemia P388 Test\nThe animals used were DBA/2 mice all of one sex, weighing a minimum of 17 g and all within a 3 g weight range. There were 5 or 6 animals per test group. The tumor transplant was by intraperitoneal injection of 0.1 ml of dilute ascitic fluid containing 10^6 cells of lymphocytic leukemia P388. The test compounds were administered intraperitoneally on days 1, 5 and 9 (relative to tumor inoculation) at various doses. The animals were weighed and survivors were recorded on a regular basis for 30 days. The median survival time and the ratio of survival time for treated (T)/control (C) animals were calculated. The positive control compound was 1,4-dihydroxy-5,8-bis--[ [2-(2-hydroxyethylamino)ethyl ]amino]anthraquinone, dihydrochloride (U.S. Patent 4,197,249) given at the indicated doses by injection."}, "melanotic melanoma B16": {"test_system": "melanotic melanoma B16", "assay": "Melanotic Melanoma B16 Test", "assay_type": "in vivo, C57BC/6 mice", "experimental": "The animals used were C57BC/6 mice, all of the same sex, weighing a minimum of 17 g and all within a 3 g weight range. There were normally 10 animals per test group. A 1.0 g portion of melanotic melanoma B16 tumor was homogenized in 10 ml of cold balanced salt solution and a 0.5 ml aliquot of the homogenate was implanted intraperitoneally into each of the test mice. The test compounds were administered intraperitoneally on days one through nine (relative to tumor inoculation) at various doses. The animals were weighed and survivors recorded on a regular basis for 60 days. The median survival time and the ratio of survival time for treated (T)/control (C) animals were calculated. The positive control compound was 1,4-dihydroxy-5,8-bis[[2-(2-hydroxyethylamino)-ethyl]amino]anthraquinone, dihydrochloride (U.S. Patent 4,197,249) given at the indicated doses by injection."}, "[2]": {"settings": "Dose 0.025 mg/kg intraperitoneally on days 1, 5 and 9"}, "[3]": {"settings": "Dose 0.1 mg/kg intraperitoneally on days 1, 5 and 9"}, "[4]": {"settings": "Dose 0.4 mg/kg intraperitoneally on days 1, 5 and 9"}, "[5]": {"settings": "Dose 1.6 mg/kg intraperitoneally on days 1, 5 and 9"}, "[6]": {"settings": "Dose 6.4 mg/kg intraperitoneally on days 1, 5 and 9"}, "[7]": {"settings": "Dose 0.05 mg/kg intraperitoneally on days one through nine"}, "[8]": {"settings": "Dose 0.2 mg/kg intraperitoneally on days one through nine"}, "[9]": {"settings": "Dose 0.8 mg/kg intraperitoneally on days one through nine"}, "[10]": {"settings": "Dose 3 mg/kg intraperitoneally on days one through nine"}, "[11]": {"settings": "Dose 12 mg/kg intraperitoneally on days one through nine"}}, "data": [{"compound": "O=C1c2c(OC(=O)C(F)(F)F)ccc(OC(=O)C(F)(F)F)c2C(=O)c2c(N(CCN(CCOC(=O)C(F)(F)F)C(=O)C(F)(F)F)C(=O)C(F)(F)F)ccc(N(CCN(CCOC(=O)C(F)(F)F)C(=O)C(F)(F)F)C(=O)C(F)(F)F)c21", "note": "[N,N'-(5,8-Dihydroxy-l,4-anthraquinonylene)bis[2,2,2-trifluoro-N-[2,(2,2,2-trifluoro-N-2-hydroxyethyl-acetamido)ethyl]acetamide]tetrakis(trifluoroacetate) (tetraester)]", "values": [{"measurement": "Median Survival", "setting": "[1]; [2]", "result": 13.5, "unit": "days"}, {"measurement": "T/C x 100 (%)", "setting": "[1]; [2]", "result": 117, "unit": "%"}, {"measurement": "Median Survival", "setting": "[1]; [3]", "result": 16, "unit": "days"}, {"measurement": "T/C x 100 (%)", "setting": "[1]; [3]", "result": 139, "unit": "%"}, {"measurement": "Median Survival", "setting": "[1]; [4]", "result": 15, "unit": "days"}, {"measurement": "T/C x 100 (%)", "setting": "[1]; [4]", "result": 130, "unit": "%"}, {"measurement": "Median Survival", "setting": "[1]; [5]", "result": 19.5, "unit": "days"}, {"measurement": "T/C x 100 (%)", "setting": "[1]; [5]", "result": 170, "unit": "%"}, {"measurement": "Median Survival", "setting": "[1]; [6]", "result": 26.5, "unit": "days"}, {"measurement": "T/C x 100 (%)", "setting": "[1]; [6]", "result": 230, "unit": "%"}, {"measurement": "Median Survival", "setting": "melanotic melanoma B16; [7]", "result": 27, "unit": "days"}, {"measurement": "T/C x 100 (%)", "setting": "melanotic melanoma B16; [7]", "result": 132, "unit": "%"}, {"measurement": "Median Survival", "setting": "melanotic melanoma B16; [8]", "result": 27, "unit": "days"}, {"measurement": "T/C x 100 (%)", "setting": "melanotic melanoma B16; [8]", "result": 132, "unit": "%"}, {"measurement": "Median Survival", "setting": "melanotic melanoma B16; [9]", "result": 34, "unit": "days"}, {"measurement": "T/C x 100 (%)", "setting": "melanotic melanoma B16; [9]", "result": 166, "unit": "%"}, {"measurement": "Median Survival", "setting": "melanotic melanoma B16; [10]", "result": ">52", "unit": "days"}, {"measurement": "T/C x 100 (%)", "setting": "melanotic melanoma B16; [10]", "result": ">254", "unit": "%"}, {"measurement": "Median Survival", "setting": "melanotic melanoma B16; [11]", "result": 42, "unit": "days"}, {"measurement": "T/C x 100 (%)", "setting": "melanotic melanoma B16; [11]", "result": 205, "unit": "%"}]}]}
